How the values were obtained:
14 human cell lines = experiment: compounds tested against 14 human cell lines (in vitro); type: cell-based
From the text: What is interesting from these in vitro data is that the activity of these esters is related to the substituents on their side aromatic rings. […] Thus, the difference in activity among the esters of the present invention are due to the different substituents on their side aromatic ring.

[1] = cited from earlier work
[2] = cited from earlier work; remark: listed apart in the source
[3] = animal models; cited from earlier work
[4] = cited from earlier work; remark: listed apart in the source
mouse leukemia L 1210 = details: initial test; cited from earlier work
[5] = patients, early trials; cited from earlier work

Question: For 20-O-phenyl-9-nitrocamptothecin [CZ176], which “activity (response of 14 human cell lines)” value (14 human cell lines) is on record?
Answer: do not show any activity

Question: What does the source list for `CC[C@@]1(O)C(=O)OCc2c1cc1n(c2=O)Cc2cc3c([N+](=O)[O-])cccc3nc2-1` [9-nitrocamptothecin]?
Answer: found as the lactone form in human plasma [1]: 5%; present as lactone form in mice plasma [2]: about 50%

Question: Which “potency relative to the parent camptothecin” value [3] does the source give for `CC[C@@](O)(C(=O)[O-])c1cc2n(c(=O)c1CO)Cc1cc3ccccc3nc1-2.[Na+]` [CPT sodium carboxylate] here?
Answer: 10-20%

Question: And the solubility in water [4]?
Answer: water-soluble

Question: For `CC[C@@]1(OC(=O)c2ccccc2)C(=O)OCc2c1cc1n(c2=O)Cc2cc3ccccc3nc2-1` [CZ222], which “activity (response of 14 human cell lines)” value (14 human cell lines) is on record?
Answer: do not show any activity

Question: With `CC[C@@]1(O)C(=O)OCc2c1cc1n(c2=O)Cc2cc3ccccc3nc2-1` [Camptothecin] as the compound, how does the “activity against mouse leukemia L 1210” value (mouse leukemia L 1210) read?
Answer: showed good activity

Question: And the “anticancer activity in human clinical trials” value [5]?
Answer: anticancer activity was not found

Question: And the “toxicity in human clinical trials” value [5]?
Answer: severe toxicity was observed
